Data reported in patent US10101655B2, “Compound, polymer, photosensitive resin composition, and color filter” (SAMSUNG SDI CO., LTD., priority 2016, dated 2018).

Assay: Evaluation 1: Solubility Measurement (dissolution state in dilution solvents)
Assay type: physicochemical
Conditions: stirred at 25° C. and 100 rpm for one hour; for Amount of dissolved compound (wt %), CH2Cl2: solvent CH2Cl2 added to 0.5 g of compound; for Amount of dissolved compound (wt %), MeOH: solvent MeOH added to 0.5 g of compound; for Amount of dissolved compound (wt %), Cyclohexanone: solvent cyclohexanone added to 0.5 g of compound
Protocol: Evaluation 1: Solubility Measurement
Dilution solvents (MeOH, CH2Cl2, cyclohexanone) were respectively added to 0.5 g of the compounds represented by Chemical Formula 6-1 to Chemical Formula 17-2 and the compound represented by Chemical Formula X-1, and each solution was stirred with Mixrotar VMR-5 (Iuchi Seieido Co., Ltd.) at 25° C. and 100 rpm for one hour.

## C=C(C)C(=O)OCCNC(=O)OCCN(CC)c1ccc2c(-c3ccccc3S(=O)(=O)[O-])c3ccc(=[N+](CC)CC)cc-3oc2c1 [Chemical Formula 6-1]
  Amount of dissolved compound (wt %), CH2Cl2: >10% wt %
  Amount of dissolved compound (wt %), MeOH: >10% wt %
  Amount of dissolved compound (wt %), Cyclohexanone: >3% wt %

## C=C(C)C(=O)OCCNC(=O)OCCN(CC)c1ccc2c(-c3ccccc3S(=O)(=O)[N-]S(=O)(=O)C(F)(F)F)c3ccc(=[N+](CC)CC)cc-3oc2c1 [Chemical Formula 6-2]
  Amount of dissolved compound (wt %), CH2Cl2: >10% wt %
  Amount of dissolved compound (wt %), MeOH: >10% wt %
  Amount of dissolved compound (wt %), Cyclohexanone: >3% wt %

## C=C(C)C(=O)OCCNC(=O)OCCN(CCCC)c1ccc2c(-c3ccccc3S(=O)(=O)[O-])c3cc/c(=[N+](\CC)CCCC)cc-3oc2c1 [Chemical Formula 7-1]
  Amount of dissolved compound (wt %), CH2Cl2: >10% wt %
  Amount of dissolved compound (wt %), MeOH: >10% wt %
  Amount of dissolved compound (wt %), Cyclohexanone: >3% wt %

## C=C(C)C(=O)OCCNC(=O)OCCN(CCCC)c1ccc2c(-c3ccccc3S(=O)(=O)[N-]S(=O)(=O)C(F)(F)F)c3cc/c(=[N+](\CC)CCCC)cc-3oc2c1 [Chemical Formula 7-2]
  Amount of dissolved compound (wt %), CH2Cl2: >10% wt %
  Amount of dissolved compound (wt %), MeOH: >10% wt %
  Amount of dissolved compound (wt %), Cyclohexanone: >3% wt %

## C=C(C)C(=O)OCCNC(=O)OCCN(CC)c1ccc2c(-c3ccccc3S(=O)(=O)[O-])c3cc/c(=[N+](\CC)c4ccccc4)cc-3oc2c1 [Chemical Formula 8-1]
  Amount of dissolved compound (wt %), CH2Cl2: >10% wt %
  Amount of dissolved compound (wt %), MeOH: >10% wt %
  Amount of dissolved compound (wt %), Cyclohexanone: >3% wt %

## C=C(C)C(=O)OCCNC(=O)OCCN(CC)c1ccc2c(-c3ccccc3S(=O)(=O)[N-]S(=O)(=O)C(F)(F)F)c3cc/c(=[N+](\CC)c4ccccc4)cc-3oc2c1 [Chemical Formula 8-2]
  Amount of dissolved compound (wt %), CH2Cl2: >10% wt %
  Amount of dissolved compound (wt %), MeOH: >10% wt %
  Amount of dissolved compound (wt %), Cyclohexanone: >3% wt %

## CCN(CCOC(=O)Nc1ccccc1)c1ccc2c(-c3ccccc3S(=O)(=O)[O-])c3ccc(=[N+](CC)CC)cc-3oc2c1 [Chemical Formula 9-1]
  Amount of dissolved compound (wt %), CH2Cl2: >10% wt %
  Amount of dissolved compound (wt %), MeOH: >10% wt %
  Amount of dissolved compound (wt %), Cyclohexanone: >1% wt %

## CCN(CCOC(=O)Nc1ccccc1)c1ccc2c(-c3ccccc3S(=O)(=O)[N-]S(=O)(=O)C(F)(F)F)c3ccc(=[N+](CC)CC)cc-3oc2c1 [Chemical Formula 9-2]
  Amount of dissolved compound (wt %), CH2Cl2: >10% wt %
  Amount of dissolved compound (wt %), MeOH: >10% wt %
  Amount of dissolved compound (wt %), Cyclohexanone: >1% wt %

## C=C(C)C(=O)OCCNC(=O)OCCN(CC)c1ccc2c(-c3ccccc3S(=O)(=O)[O-])c3cc/c(=[N+](/CC)CCOC(=O)NCCOC(=O)C(=C)C)cc-3oc2c1 [Chemical Formula 10-1]
  Amount of dissolved compound (wt %), CH2Cl2: >10% wt %
  Amount of dissolved compound (wt %), MeOH: >10% wt %
  Amount of dissolved compound (wt %), Cyclohexanone: >5% wt %

## C=C(C)C(=O)OCCNC(=O)OCCN(CC)c1ccc2c(-c3ccccc3S(=O)(=O)[N-]S(=O)(=O)C(F)(F)F)c3cc/c(=[N+](/CC)CCOC(=O)NCCOC(=O)C(=C)C)cc-3oc2c1 [Chemical Formula 10-2]
  Amount of dissolved compound (wt %), CH2Cl2: >10% wt %
  Amount of dissolved compound (wt %), MeOH: >10% wt %
  Amount of dissolved compound (wt %), Cyclohexanone: >5% wt %

## C=C(C)C(=O)OCCNC(=O)OCCN(CCCC)c1ccc2c(-c3ccccc3S(=O)(=O)[O-])c3cc/c(=[N+](/CCCC)CCOC(=O)NCCOC(=O)C(=C)C)cc-3oc2c1 [Chemical Formula 11-1]
  Amount of dissolved compound (wt %), CH2Cl2: >10% wt %
  Amount of dissolved compound (wt %), MeOH: >10% wt %
  Amount of dissolved compound (wt %), Cyclohexanone: >5% wt %

## C=C(C)C(=O)OCCNC(=O)OCCN(CCCC)c1ccc2c(-c3ccccc3S(=O)(=O)[N-]S(=O)(=O)C(F)(F)F)c3cc/c(=[N+](/CCCC)CCOC(=O)NCCOC(=O)C(=C)C)cc-3oc2c1 [Chemical Formula 11-2]
  Amount of dissolved compound (wt %), CH2Cl2: >10% wt %
  Amount of dissolved compound (wt %), MeOH: >10% wt %
  Amount of dissolved compound (wt %), Cyclohexanone: >5% wt %

## C=C(C)C(=O)OCCNC(=O)OCCN(CC)c1ccc2c(-c3ccccc3S(=O)(=O)[O-])c3cc/c(=[N+](\CCOC(=O)NCCOC(=O)C(=C)C)c4ccccc4)cc-3oc2c1 [Chemical Formula 12-1]
  Amount of dissolved compound (wt %), CH2Cl2: >10% wt %
  Amount of dissolved compound (wt %), MeOH: >10% wt %
  Amount of dissolved compound (wt %), Cyclohexanone: >5% wt %

## C=C(C)C(=O)OCCNC(=O)OCCN(CC)c1ccc2c(-c3ccccc3S(=O)(=O)[N-]S(=O)(=O)C(F)(F)F)c3cc/c(=[N+](\CCOC(=O)NCCOC(=O)C(=C)C)c4ccccc4)cc-3oc2c1 [Chemical Formula 12-2]
  Amount of dissolved compound (wt %), CH2Cl2: >10% wt %
  Amount of dissolved compound (wt %), MeOH: >10% wt %
  Amount of dissolved compound (wt %), Cyclohexanone: >5% wt %

## CCN(CCOC(=O)Nc1ccccc1)c1ccc2c(-c3ccccc3S(=O)(=O)[O-])c3cc/c(=[N+](/CC)CCOC(=O)Nc4ccccc4)cc-3oc2c1 [Chemical Formula 13-1]
  Amount of dissolved compound (wt %), CH2Cl2: >10% wt %
  Amount of dissolved compound (wt %), MeOH: >10% wt %
  Amount of dissolved compound (wt %), Cyclohexanone: >3% wt %

## CCN(CCOC(=O)Nc1ccccc1)c1ccc2c(-c3ccccc3S(=O)(=O)[N-]S(=O)(=O)C(F)(F)F)c3cc/c(=[N+](/CC)CCOC(=O)Nc4ccccc4)cc-3oc2c1 [Chemical Formula 13-2]
  Amount of dissolved compound (wt %), CH2Cl2: >10% wt %
  Amount of dissolved compound (wt %), MeOH: >10% wt %
  Amount of dissolved compound (wt %), Cyclohexanone: >3% wt %

## C=CC(=O)OCCNC(=O)OCCN(CC)c1ccc2c(-c3ccccc3S(=O)(=O)[O-])c3cc/c(=[N+](/CC)CCOC(=O)NCCOC(=O)C=C)cc-3oc2c1 [Chemical Formula 14-1]
  Amount of dissolved compound (wt %), CH2Cl2: >10% wt %
  Amount of dissolved compound (wt %), MeOH: >10% wt %
  Amount of dissolved compound (wt %), Cyclohexanone: >5% wt %

## C=CC(=O)OCCNC(=O)OCCN(CC)c1ccc2c(-c3ccccc3S(=O)(=O)[N-]S(=O)(=O)C(F)(F)F)c3cc/c(=[N+](/CC)CCOC(=O)NCCOC(=O)C=C)cc-3oc2c1 [Chemical Formula 14-2]
  Amount of dissolved compound (wt %), CH2Cl2: >10% wt %
  Amount of dissolved compound (wt %), MeOH: >10% wt %
  Amount of dissolved compound (wt %), Cyclohexanone: >5% wt %

## C=C(C)c1cccc(C(C)(C)NC(=O)OCCN(CC)c2ccc3c(-c4ccccc4S(=O)(=O)[O-])c4cc/c(=[N+](/CC)CCOC(=O)NC(C)(C)c5cccc(C(=C)C)c5)cc-4oc3c2)c1 [Chemical Formula 15-1]
  Amount of dissolved compound (wt %), CH2Cl2: >10% wt %
  Amount of dissolved compound (wt %), MeOH: >10% wt %
  Amount of dissolved compound (wt %), Cyclohexanone: >5% wt %

## C=C(C)c1cccc(C(C)(C)NC(=O)OCCN(CC)c2ccc3c(-c4ccccc4S(=O)(=O)[N-]S(=O)(=O)C(F)(F)F)c4cc/c(=[N+](/CC)CCOC(=O)NC(C)(C)c5cccc(C(=C)C)c5)cc-4oc3c2)c1 [Chemical Formula 15-2]
  Amount of dissolved compound (wt %), CH2Cl2: >10% wt %
  Amount of dissolved compound (wt %), MeOH: >10% wt %
  Amount of dissolved compound (wt %), Cyclohexanone: >5% wt %

## CCN(CCOC(=O)NC1CCCCC1)c1ccc2c(-c3ccccc3S(=O)(=O)[O-])c3ccc(=[N+](CC)CC)cc-3oc2c1 [Chemical Formula 16-1]
  Amount of dissolved compound (wt %), CH2Cl2: >10% wt %
  Amount of dissolved compound (wt %), MeOH: >10% wt %
  Amount of dissolved compound (wt %), Cyclohexanone: >1% wt %

## CCN(CCOC(=O)NC1CCCCC1)c1ccc2c(-c3ccccc3S(=O)(=O)[N-]S(=O)(=O)C(F)(F)F)c3ccc(=[N+](CC)CC)cc-3oc2c1 [Chemical Formula 16-2]
  Amount of dissolved compound (wt %), CH2Cl2: >10% wt %
  Amount of dissolved compound (wt %), MeOH: >10% wt %
  Amount of dissolved compound (wt %), Cyclohexanone: >1% wt %

## CCN(CCOC(=O)NC1CCCCC1)c1ccc2c(-c3ccccc3S(=O)(=O)[O-])c3cc/c(=[N+](/CC)CCOC(=O)NC4CCCCC4)cc-3oc2c1 [Chemical Formula 17-1]
  Amount of dissolved compound (wt %), CH2Cl2: >10% wt %
  Amount of dissolved compound (wt %), MeOH: >10% wt %
  Amount of dissolved compound (wt %), Cyclohexanone: >3% wt %

## CCN(CCOC(=O)NC1CCCCC1)c1ccc2c(-c3ccccc3S(=O)(=O)[N-]S(=O)(=O)C(F)(F)F)c3cc/c(=[N+](/CC)CCOC(=O)NC4CCCCC4)cc-3oc2c1 [Chemical Formula 17-2]
  Amount of dissolved compound (wt %), CH2Cl2: >10% wt %
  Amount of dissolved compound (wt %), MeOH: >10% wt %
  Amount of dissolved compound (wt %), Cyclohexanone: >3% wt %

## CCN(CC)c1ccc2c(-c3ccccc3S(=O)(=O)O)c3ccc(=[N+](CC)CC)cc-3oc2c1 [Chemical Formula X-1, reference compound]
  Amount of dissolved compound (wt %), CH2Cl2: <1% wt %
  Amount of dissolved compound (wt %), MeOH: >10% wt %
  Amount of dissolved compound (wt %), Cyclohexanone: <1% wt %
